Some results are limits rather than exact numbers.

One data set deals with Trametes versicolor. In words: Test for antiseptic effects of preservative plywood (JIS K1571:2004). It is filed as cell-based. The conditions noted are these: glue line method; summary of Tables 2 and 3. The method, then:
1000 g of urea melamine resin (PWP-60, manufactured by Oshika Corporation) was added to 180 g of wheat flour and fully kneaded to thereby obtain a kneaded product. 8 g of ammonium chloride was added as a hardening agent to the kneaded product, and a solution of each of the compounds of Example 1 and Comparative Example 1, 2 and 5 to 25 was further added thereto so that the final concentrations of the compound in the wood become 150, 100, 50 and 25 g/m^3 and kneaded. 18 g of the above kneaded product was applied onto each of the bonding plane of the three red lauan veneer sheets having an area of 30 x 30 cm and thickness of 0.85 mm/2.4 mm/0.85 mm. After bonding the three sheets to each other, the sheets were subjected to cold pressing at room temperature for 20 minutes and the thermal pressure of 120° C. (10 kgf/cm^2) was applied to the sheets for two minutes to obtain the target plywood. Each of the prepared plywood was processed into the size of 20×20×4.1 mm to serve as a test sample.
The samples of the plywood and LVL prepared in Preparation Examples 2 and 3 were evaluated by the test for antiseptic effects for the drug pressure treatment according to JIS K1571:2004. The weather resistance operation and the test method for the antiseptic effect were performed according to the above test method.
In the case of `CCCCC(O)(Cn1cncn1)c1ccc(Cl)cc1Cl` (centres unmarked) [Comparative Example 1, hexaconazole], the “amount showing the antiseptic effect on Trametes versicolor” value is on record as at least 50 g/m^3.
As for `C[Si](C)(C)CC(O)(Cn1cncn1)c1ccc(F)cc1F` (centres unmarked) [Comparative Example 2, 2-(2,4-difluorophenyl)-1-(1H-1,2,4-triazole-1-yl)-3-(trimethylsilyl)propane-2-ol], the “amount showing the antiseptic effect on Trametes versicolor” value is reported as at least 100 g/m^3.

Test system in a further data set: not listed separately
In words: Test for miscibility with a phenol resin glue. The class given is physicochemical. Set-up: key to Phenol resin status after 60 minutes: ∘: No change; x: Obvious increase in the viscosity was seen and it seems impossible to apply the composition onto the veneer sheet. To be noted: 10% (w/w) solution added to phenol resin glue Deernol D-117 kneaded product; viscosity change visually observed for 60 minutes. The protocol:
The following compounds, which are known to have wood preservative activity, are dissolved in methyl ethylene triglycol to reach a concentration of 10% (w/w) to thereby obtain a solution of each of the compounds.
1000 g of phenol resin-based glue Deernol D-117 (manufactured by Oshika Corporation), 70 g of wheat flour and 100 g of calcium carbonate were mixed and well kneaded. Each of the solutions of Example 1 and Comparative Example 1 to 25 was added to 17 g of the kneaded product and mixed well together. The viscosity change of the glue was visually observed for 60 minutes. […] Although a number of documents listed as the prior art documents and the like teach that quaternary ammonium compounds can be applied to the glue line treatment, it is clear that those compounds have a problem for practical use (Comparative Examples 3 and 4). On the other hand, it was confirmed that the other compounds including that of Example has no problem from the viewpoint of compatibility.
Regarding `CC1(C)CCC(Cc2ccc(Cl)cc2)C1(O)Cn1cncn1` (centres unmarked) [Comparative Example 14, metconazole], the “Phenol resin status after 60 minutes” value is “∘”.
Regarding “benzalkonium chloride [Comparative Example 3]”, the “Phenol resin status after 60 minutes” value is reported as “x”.
As for `Clc1ccc(C2(Cn3cncn3)OCCO2)c(Cl)c1` [Comparative Example 7, azaconazole], the “Phenol resin status after 60 minutes” value was “∘”.
In the case of `C[Si](C)(C)CC(O)(Cn1cncn1)c1ccc(F)cc1` (centres unmarked) [Comparative Example 8, simeconazole], the “Phenol resin status after 60 minutes” value was “∘”.
On the same count and under the same terms, in the case of `CCCCC(C#N)(Cn1cncn1)c1ccc(Cl)cc1` (centres unmarked) [Comparative Example 15, myclobutanil] it was “∘”.
For the compound `CC(C)C1CCC(Cc2ccc(Cl)cc2)C1(O)Cn1cncn1` (centres unmarked) [Comparative Example 13, ipconazole], the “Phenol resin status after 60 minutes” value was “∘”.
As for `Clc1ccc(CSC(Cn2cncn2)=Nc2ccc(Cl)cc2Cl)cc1` [Comparative Example 12, imibenconazole], the “Phenol resin status after 60 minutes” value is “∘”.
Turning to `CCCCC(O)(Cn1cncn1)c1ccc(Cl)cc1Cl` (centres unmarked) [Comparative Example 1, hexaconazole], the “Phenol resin status after 60 minutes” value is recorded as “∘”.
For `CC(C1CC1)C(O)(Cn1cncn1)c1ccc(Cl)cc1` (centres unmarked) [Comparative Example 5, cyproconazole], the “Phenol resin status after 60 minutes” value was “∘”.
`N#CC(CCc1ccc(Cl)cc1)(Cn1cncn1)c1ccccc1` (centres unmarked) [Comparative Example 9, fenbuconazole]: the “Phenol resin status after 60 minutes” value is listed as “∘”.
`CCCC1COC(Cn2cncn2)(c2ccc(Cl)cc2Cl)O1` (centres unmarked) [Comparative Example 17, propiconazole]: the “Phenol resin status after 60 minutes” value is listed as “∘”.
With `FC(F)C(F)(F)OCC(Cn1cncn1)c1ccc(Cl)cc1Cl` (centres unmarked) [Comparative Example 18, tetraconazole], the “Phenol resin status after 60 minutes” value is “∘”.
Still for that read-out and setting: then `CC(C)(C)C(O)(CCc1ccc(Cl)cc1)Cn1cncn1` (centres unmarked) [Comparative Example 6, tebuconazole], with “∘”; and `CC1(C)CCC(=Cc2ccc(Cl)cc2)C1(O)Cn1cncn1` (centres unmarked) [Comparative Example 20, triticonazole], with “∘”; and `CC(C)(C)C(=O)C(Oc1ccc(Cl)cc1)n1cncn1` (centres unmarked) [Comparative Example 19, triadimefon], with “∘”.
The same measure, in the same setting: in the case of `CCCCCCCCCC[N+](C)(C)CCCCCCCCCC.[Cl-]` [Comparative Example 4, didecyldimethylammonium chloride] it was “x”.
For `C[Si](C)(C)CC(O)(Cn1cncn1)c1ccc(F)cc1F` (centres unmarked) [Comparative Example 2, 2-(2,4-difluorophenyl)-1-(1H-1,2,4-triazole-1-yl)-3-(trimethylsilyl)propane-2-ol], the “Phenol resin status after 60 minutes” value is “∘”.
As to `OC(Cn1cncn1)(c1ccc(F)cc1)c1ccccc1F` (centres unmarked) [Comparative Example 11, flutriafol], the “Phenol resin status after 60 minutes” value is given as “∘”.
Regarding `N#Cc1c(Cl)c(Cl)c(Cl)c(C#N)c1Cl` [Comparative Example 25, chlorothalonil], the “Phenol resin status after 60 minutes” value is recorded as “∘”.
Take `C[Si](Cn1cncn1)(c1ccc(F)cc1)c1ccc(F)cc1` [Comparative Example 10, flusilazole]: the “Phenol resin status after 60 minutes” value is given as “∘”.
Take `CCCC(Cn1cncn1)c1ccc(Cl)cc1Cl` (centres unmarked) [Comparative Example 16, penconazole]: the “Phenol resin status after 60 minutes” value was “∘”.
As for `COC(=O)N(OC)c1ccccc1COc1ccn(-c2ccc(Cl)cc2)n1` [Comparative Example 22, pyraclostrobin], the “Phenol resin status after 60 minutes” value is reported as “∘”.

Still in this data set, the particulars now being: summary of Table 1.
For “benzalkonium chloride [Comparative Example 3]”, the “compatibility with phenol resin glue (in words)” value is reported as “harden the glue”.
For `CCCCCCCCCC[N+](C)(C)CCCCCCCCCC.[Cl-]` [Comparative Example 4, didecyldimethylammonium chloride], the “compatibility with phenol resin glue (in words)” value is reported as “harden the glue”.

The values above are taken from patent US20120100361A1, “ANTISEPTIC COMPOSITION FOR ENGINEERING WOOD PRODUCTION, AND ENGINEERING WOOD” (SDS BIOTECH K.K., priority 2009, published 2012).
